Reference: article PMC12593965, “Determination of Retention Behavior and pK a Values of Some Phenothiazines with Green Chemistry Approach” (ACS Omega, 2025)
Like-named read-outs stand apart in the source and are kept apart here.

Legend:
[1] = RPLC determination of sspKa in ACN-water binary mixtures (conventional RPLC); format: physicochemical; conditions: standard deviation in parentheses
Experimental: (§1) The analysis of the compounds on the HPLC column was determined in binary mixtures of ACN–water and EtOH–water containing 50, 55, and 60% (v/v) organic solvents at varying pH values (5.5–11.5). Buffer compounds containing 30 mM o-H3PO4 and NH4Cl at the same concentration were used in the mobile phases according to the pH values at which the buffers were effective.
(§2) The pH value of the mobile phase was adjusted by adding a 1 M NaOH solution to the mobile phase containing o-H3PO4 and by adding concentrated NH3 solution to the mobile phase containing ammonium chloride. The pH values of the binary mixtures in this mobile phase were evaluated according to the International Union of Pure and Applied Chemistry (IUPAC) guideline, taking into account the reference pH values obtained from the National Institute of Standards and Technology (NIST). − KHP (0.05 mol/kg) was used as a reference standard for electrode calibration in hydroorganic mixtures. The pH value (pHx) of this hydroorganic mixture can be determined by eq . pHx=pHs+Es−Ex/(ln10)RT/F 1
(§3) Solutions of the investigated compounds in binary mixtures were prepared daily. Standard solutions at 100 μg/mL concentrations were prepared in the studied mobile phase. Fresh solutions were prepared daily and stored at +4 °C in the dark until analysis. For testing, a 20 μL sample was injected three times into the HPLC instrument. The average t R was calculated from these replicates, showing precision with a relative standard deviation (%RSD) of approximately 0.01.
(§4) This liquid chromatographic study was performed at 25 and 37 °C. Chromatographic determination of the compounds was performed on a Kinetex EVO C18 (Phenomenex, 150 × 4.6 mm ID, 5 μm) core–shell column at a constant flow rate of 1 mL/min. There are no data in the literature regarding the determination of the retention behavior of compounds by analysis with HPLC columns produced with the core–shell technique. Additionally, the theoretical plate number of the column being 2000 and above and the tailing factor being below 2 indicate optimum column performance and satisfactory peak symmetry.
(§5) The t R values of promethazine, promazine, and trimeprazine for the study on the HPLC column were determined by using the RPLC method at different pH values in binary mixtures. The s ^spK a values of the ionizable and molecular forms (BH^+, B) were calculated using the nonlinear regression program (NLREG).
(§6) The intrinsic t R (t RBH^+ , t RB) and s ^spK a values of the studied compounds were calculated in the NLREG program using the average t R values determined depending on the changing EtOH and ACN concentrations and pH values in the mobile phase. It is seen that the standard deviation values of the sigmoidal fitting parameters (t RBH^+ , t RB, and s ^spK a) given in Table are very small. Since good results were obtained by using the t R value directly, the k value was not used. Although the changes in s ^spK a values according to the solvent composition in the mobile phase used were different for each compound, the same type of sigmoidal behavior was obtained as in Figure . The s ^spK a of basic compounds decreases mainly due to electrostatic interactions that contribute to the pK a value. Since ACN (0.46) and EtOH (0.65) have lower relative polarity compared to water (1.00), the solute–solvent polar interaction decreases as the amount of organic solvent in the mobile phase increases. Therefore, the t R value increases as the pH value of the mobile phase increases, while the t R value decreases as the amount of organic solvents in the mobile phase increases. In the mobile phase rich in ACN (0.25 ≤ X ACN ≤ 0.33) and EtOH (0.26 ≤ X EtOH ≤ 0.35), preferential solvation with water exists, and this can explain the decrease in the s ^spK a values of the studied compounds when the amount of organic solvent in the mobile phase increases. ,

[2] = RPLC determination of sspKa in EtOH-water binary mixtures (green RPLC); format: physicochemical; conditions: standard deviation in parentheses
Experimental: as §1, §2, §3, §4, §5, §6

[3] = Aqueous pKa (wwpKa) calculated from sspKa via X solvent - sspKa and 1/ε - sspKa linear relationships; format: physicochemical; conditions: for wwpKa, 1/εACN - sspKa approach / wwpKa, X ACN - sspKa approach: from ACN-water data; for wwpKa, 1/εEtOH - sspKa approach / wwpKa, X EtOH - sspKa approach: from EtOH-water data
Experimental: The w ^wpK a values of promethazine, promazine, and trimeprazine in a water medium were determined by evaluating the obtained s ^spK a values of the compounds with the X solvent – s ^spK a , and the reciprocal of the solvent’s dielectric constant (1/ε) – s ^spK a relationships.
In this study, the w ^wpK a values of the examined compounds were determined based on the mole fraction of solvent-s ^spK a (X solvent – s ^spK a) and 1/εsolvent – s ^spK a approaches. In the calculation using the solvent mole fraction, the intercept values of the equation obtained from the linear relationship between the organic solvent X solvent and s ^spK a give the w ^wpK a values of the compounds examined.
To confirm the computed w ^wpK a values, an alternative approach was employed. Within the scope of the study, the correlation between the inverse of the dielectric constant value of the organic solvent (1/ε) and the s ^spK a values of the compounds was utilized. Since the ε values depend on the temperature, these values were taken from Gagliardi et al. and Navarkhele and Navarkhele for the two temperatures under study. , In the obtained linear equations, ε values in the water environment were used for increasing temperatures, and w ^wpK a values for the compounds could be determined. There was a decrease in the dielectric constant with the decrease in solvent polarity.
Figure illustrates the linear relationship between the solvent’s macroscopic constant X solvent and s ^spK a values.

[4] = Percent ionization of the basic functional group by Henderson-Hasselbach equation; format: physicochemical; conditions: from wwpKa at 37 °C (EtOH-water)
Text: Drug molecules can ionize at different pH ranges, and the pK a value serves as a universal measure of ionization. […] Changing the ionic form of a drug can affect its action, absorption, and therapeutic efficacy depending on the pH of the medium. Therefore, evaluating the degree of ionization of the compounds selected in this study is crucial. Using the Henderson–Hasselbach equation, the percent ionization and pK a (at 50% ionization) of the basic functional group of each compound at different pH values were calculated (Figure S4). Since a green chemistry approach was preferred in this study, the w ^wpK a values at 37 °C, determined from data obtained from an EtOH-water binary mixture, were used in the calculation of the percentage ionization. […] At a pH value 2 pH units above the pK a, the basic compound is in its un-ionized form. It is known that the hydrophilic properties of compounds decrease as the alkyl chain length increases. According to the data in Table S2, the percentage ionization values increase as the alkyl chain length increases.

[5] = cited from earlier work
[6] = source not stated; cited from earlier work

sspKa ([1]; 50% (v/v) ACN-water, 25 °C) | sspKa ([1]; 50% (v/v) ACN-water, 37 °C) | sspKa ([1]; 55% (v/v) ACN-water, 25 °C) | sspKa ([1]; 55% (v/v) ACN-water, 37 °C) | sspKa ([1]; 60% (v/v) ACN-water, 25 °C) | sspKa ([1]; 60% (v/v) ACN-water, 37 °C) | sspKa ([2]; 50% (v/v) EtOH-water, 25 °C) | sspKa ([2]; 50% (v/v) EtOH-water, 37 °C) | sspKa ([2]; 55% (v/v) EtOH-water, 25 °C) | sspKa ([2]; 55% (v/v) EtOH-water, 37 °C) | sspKa ([2]; 60% (v/v) EtOH-water, 25 °C) | sspKa ([2]; 60% (v/v) EtOH-water, 37 °C) | wwpKa, 1/εACN - sspKa approach ([3]; 25 °C) | wwpKa, X ACN - sspKa approach ([3]; 25 °C) | wwpKa, 1/εACN - sspKa approach ([3]; 37 °C) | wwpKa, 1/εEtOH - sspKa approach ([3]; 25 °C) | wwpKa, X EtOH - sspKa approach ([3]; 25 °C) | wwpKa, 1/εEtOH - sspKa approach ([3]; 37 °C) | wwpKa, X EtOH - sspKa approach ([3]; 37 °C) | % Ionization value ([4]; pH 2.0) | SMILES | also measured
9.643 (0.078) | 9.470 (0.073) | 9.527 (0.038) | 9.329 (0.050) | 9.425 (0.062) | 9.202 (0.047) | 9.388 (0.012) | 9.329 (0.034) | 9.278 (0.016) | 9.243 (0.091) | 9.167 (0.034) | 9.118 (0.045) | 10.134 | 10.268 | 10.112 | 10.049 | 10.110 | 9.968 | 10.027 | 100% | CC(CN(C)C)CN1c2ccccc2Sc2ccccc21 (stereo not shown) [trimeprazine] | % Ionization value ([4]; pH 7.4): 99.765%; % Ionization value ([4]; pH 9.0): 91.410%; % Ionization value ([4]; pH 10.0): 51.554%; % Ionization value ([4]; pH 12.0): 1.053%; pKa, literature values ([5]; 25 °C, different methods (CE, potentiometry, UV-Vis)): 10.12; logP [6]: 4.11
9.265 (0.088) | 9.195 (0.036) | 9.096 (0.012) | 9.042 (0.082) | 8.867 (0.009) | 8.857 (0.082) | 9.185 (0.042) | 9.048 (0.024) | 8.978 (0.008) | 8.914 (0.053) | 8.808 (0.042) | 8.805 (0.066) | 10.361 | 10.468 | 10.120 | 10.302 | 10.407 | 9.766 | 9.836 | 100% | CN(C)CCCN1c2ccccc2Sc2ccccc21 [promazine] | wwpKa, X ACN - sspKa approach ([3]; 37 °C): 10.213; % Ionization value ([4]; pH 7.4): 99.635%; % Ionization value ([4]; pH 9.0): 87.269%; % Ionization value ([4]; pH 10.0): 40.670%; % Ionization value ([4]; pH 12.0): 0.681%; pKa, literature values ([5]; 37 °C): 9.11 ± 0.03; logP [6]: 3.75
9.167 (0.064) ^a | 9.108 (0.045) | 9.007 (0.064) | 8.947 (0.097) | 8.868 (0.075) | 8.806 (0.053) | 9.117 (0.011) ^a | 8.926 (0.082) | 8.999 (0.008) | 8.824 (0.009) | 8.900 (0.071) | 8.666 (0.031) | 9.980 | 10.056 | 9.924 | 9.761 | 9.821 | 9.716 | 9.787 | 100% | CC(CN1c2ccccc2Sc2ccccc21)N(C)C (stereo not shown) [promethazine] | wwpKa, X ACN - sspKa approach ([3]; 37 °C): 10.006; % Ionization value ([4]; pH 7.4): 99.591%; % Ionization value ([4]; pH 9.0): 85.962%; % Ionization value ([4]; pH 10.0): 37.979%; % Ionization value ([4]; pH 12.0): 0.609%; logP [6]: 3.14
